Results on two substances are retold here after US20240400647A1, “Biologically Active Collagen Hybridizing Peptides” (3HELIX, INC., priority 2021, published 2024).

For this assay, the system named is IMR-90 human lung fibroblasts. Briefly: IMR-90 fibroblast culture with peptides, gelatin or collagen added to media. Particulars: 30 μg/mL added to media, imaged after three days at 37° C. The format is cell-based. As for the experimental part:
IMR-90 human lung fibroblasts were purchased from ITCC. Cells were thawed and cultured in EMEM supplemented with 10% FBS and 1% Pen-Strep. Cells were cultured to 80-95% confluency then sub-cultured for three passages prior to utilization in experiments.
Experimental wells were prepared by adding 100 μL cell media to wells of a 96-well gelatin coated plate (corning) or 300 μL media to the wells of a 48-well uncoated cell culture plate. Peptides, as listed below, were added to each well (5 μL to 96 well plates, 10 μL to 48 well plates).
During passaging, cells were quantified, and 2100 IMR-90 cells were added to each well of the 96 well gelatin-coated plate. For the uncoated plate IMR-90 cells were added to each well. Additional media was added to bring the volume to 200 μL (96 well) or 500 μL (48 well). Cells were cultured at 37° C., 5% CO2 for three days then imaged. […] Media was added one day later (day 4) then allowed to culture an additional 2 days before imaging and lysing cells. qPCR was performed on cell lysate following cDNA synthesis (cell-to-CT kit, Thermo Fisher scientific).

For gelatin, the “confluence and directionality of cell growth” value was “higher confluence and more directionality in cell growth”.

Take collagen: the “confluence and directionality of cell growth” value was “higher confluence and more directionality in cell growth”.
